We go through 9 molecules from patent US20130302344A1, “METHODS AND MEDICAMENTS FOR THE TREATMENT OF GOUT OR PSEUDOGOUT” (TOPOTARGET SWITZERLAND SA, priority 2006, published 2013).

The subject of one data set is gout. The experiment in a line: Case reports of patients with proven gout. It is filed as in vivo, human. The conditions noted are these: for response of gouty arthritis to earlier treatment: cases 3 and 4, prednisone 30 mg daily tapering over 7 days, colchicine 1 mg daily; for adverse effects of earlier gout treatments: patient history in cases 1-4, doses as stated per case; for response of acute gouty arthritis / recurrence on follow-up: gout patients; for response of acute gouty arthritis: anakinra 100 mg daily for 2-3 days (cases 1-3); for recurrence on follow-up: one to two months after anakinra. On the procedure: Four patients with proven gout were treated with anakinra (Kineret).

The subject of data set [1] is mouse peritoneal exudate cells. Put plainly: TNF production by LPS-treated mouse peritoneal exudate cells (ELISA). The settings on record: 200 nM, 1 μg/ml LPS overnight; FIG. 8a. Format: cell-based. The method, then:
BALB/C mice were intraperitoneally injected with a 4% solution of thioglycollate. Six days later, peritoneal exudate cells (PEC) were collected by washing the peritoneal cavity with phosphate buffer saline. Cells were distributed in wells of tissue culture 12 well plates (10^6 cells/well). Non-adherent cells were washed and adherent cells were treated. with 1 μg/ml of Ultrapure LPS (Invivogen) in the presence or the absence of 200 nM of 17-AAG (Invivogen). (a) After overnight culture, the supernatants were collected and used for determination of TNF by ELISA. (b, c) Fresh medium was added on the cells in the presence or the absence of 2 mM of ATP or 100 μg/ml MSU. After 5 hours, the supernatants were collected and IL-1β was determined by ELISA. (d) Mouse peritoneal macrophages were treated with 500 ng/ml of Ultrapure LPS (Invivogen) in the presence or the absence of 50 nM of 17-DMAG (Invivogen). […] After 4 hours, the supernatants were collected and IL-1β was determined by ELISA. […] After 6 hours, the supernatants were collected and IL-1β was determined by ELISA.
Eight to twelve week-old mice of indicated genotypes were injected i.p. with 4% thioglycollate solution, and macrophages were collected by peritoneal lavage 3-6 days later. […] Caspase-1 was analyzed using an antibody from Santa Cruz Biotechnology (se-514) and ASC using an antibody as described previously^34. […]
(In an ELISA, binding on a coated surface is turned into a signal by an enzyme label.)

For data set [2], the system named is mouse peritoneal exudate cells. Put plainly: IL-1β production by mouse peritoneal macrophages (ELISA). Format: cell-based. On the procedure: (§1) BALB/C mice were intraperitoneally injected with a 4% solution of thioglycollate. Six days later, peritoneal exudate cells (PEC) were collected by washing the peritoneal cavity with phosphate buffer saline. Cells were distributed in wells of tissue culture 12 well plates (10^6 cells/well). Non-adherent cells were washed and adherent cells were treated. with 1 μg/ml of Ultrapure LPS (Invivogen) in the presence or the absence of 200 nM of 17-AAG (Invivogen). (a) After overnight culture, the supernatants were collected and used for determination of TNF by ELISA. (b, c) Fresh medium was added on the cells in the presence or the absence of 2 mM of ATP or 100 μg/ml MSU. After 5 hours, the supernatants were collected and IL-1β was determined by ELISA. (d) Mouse peritoneal macrophages were treated with 500 ng/ml of Ultrapure LPS (Invivogen) in the presence or the absence of 50 nM of 17-DMAG (Invivogen). 2 hours later, cells were stimulated with 500 μg/ml MSU. After 4 hours, the supernatants were collected and IL-1β was determined by ELISA. (e) Human blood monocytes were treated with 1 μg/ml of Ultrapure LPS (Invivogen) in the presence or the absence of graded doses of 17-DMAG (Invivogen). After overnight culture, cells were stimulated with 100 μg/ml MSU. After 6 hours, the supernatants were collected and IL-1β was determined by ELISA.
Eight to twelve week-old mice of indicated genotypes were injected i.p. with 4% thioglycollate solution, and macrophages were collected by peritoneal lavage 3-6 days later. Cells were plated at the density of 7×10^5 cells in twelve-well dishes and. non-adherent cells were removed after 3 h. Cells were cultured in RPMI complemented with 10% FCS, sodium pyruvate, penicillin/streptomycin and L-glutamin. All cells were stimulated in OptiMEM medium as described above. Caspase-1 was analyzed using an antibody from Santa Cruz Biotechnology (se-514) and ASC using an antibody as described previously^34. The antibody against mouse IL-1β[…]was a gift from Roberto Solari, Glaxo. […]

Data set [3] has as its system MSU-induced neutrophil recruitment. Put plainly: MSU crystal-induced aseptic peritonitis, neutrophil recruitment (FACS). It is filed as in vivo, mouse. The method, then:
Aseptic peritonitis was induced in female C57BL/6 mice by injection of 500 μg monosodium urate crystals (MSU) with PBS, 200 μg anakinra (Kineret, Amgen Inc., Thousand Oaks, USA), 200 μg anti-IL-1RI monoclonal antibody (BD Pharmingen, San Jose, USA), 200 μg anti-IL-1α monoclonal antibody (Biolegend, San Diego, USA), 200 μg anti-IL-1β monoclonal antibody ((Biolegend, San Diego, USA), or combination of 200 μg anti-IL-1α monoclonal antibody and 200 μg anti-IL-1β monoclonal antibody. After 6 h, mice were killed and the peritoneal cavity was washed with 10 ml of cold PBS. The lavage fluids were analyzed for neutrophil recruitment by FACS using the neutrophil markers CD11b and Gr1 (Ly-6G). Values are±s.e.m. of total neutrophil counts with 4-5 animals per group, Unpaired Students t test was used to calculate P value. […] The lavage fluids were analyzed for neutrophil recruitment by FACS using the neutrophil markers CD11b and Gr1 (Ly-6G), Values are±s.e.m. of total neutrophil counts with 4-5 animals per group. […] The lavage fluids were analyzed for neutrophil recruitment by FACS using the neutrophil markers CD11b and Gr1 (Ly-6G). […] The lavage fluids were analysed for PMN recruitment by FACS using the neutrophil marker Ly-6G and CD11b (BD Pharmingen).

The subject of a further data set is human monocytes. The experiment in a line: TNF-α and IL-6 production by human monocytes incubated with MSU or CPPD (ELISA). Format: cell-based. The conditions noted are these: two concentrations of IL-1Ra, FIG. 5b. On the procedure: (§2) a, THP1 cells were stimulated with MSU, CPPD or Zymosan (Zym) for the indicated, times in the presence or absence of the caspase-1 inhibitor zYVAD-fink. Supernatants were analyzed for TNF-α (gray bars) and IL-1β (black bars) production by ELISA. b, human monocytes were incubated with MSU or CPPD in the presence of two concentrations of IL-1Ra. TNF-α and IL-6 production was monitored by ELISA.
(§3) THP1 were stimulated for 3 h with 0.5 μM of PMA the day before stimulation as described^10. This treatment increases the phagocytic properties of the cells and induces a constitutive production of proIL-1β^33. Human monocytes were purified as described before^30. All cells were stimulated in OptiMEM medium as indicated. Human mature IL-1β was detected with a specific antibody directed. against the cleaved epitope (D116) from Cell Signalling, or with an Enzyme-linked immunoabsorbent assay (ELISA) from BD bioscience. TNF and IL-6 were detected by an ELISA from ImmunoTools and caspase-1 by an ELISA from Alexis. IL-18 was detected. with an antibody from MBL (D044-3) and. Caspase-1 with an antibody from Santa Cruz Biotechnology (sc-622), The antibody against human IL-1β[…] was a gift from Roberto Solari, Glaxo. z-YVAD-fmk was purchased from Alexis Biochemicals. IL-1ra (anakinra, Kineret) was from Amgen (thousand Oaks, USA).

For data set [4] the following is noted: oral; cited from earlier work.
Another data set relates to MSU-induced inflammation. The conditions noted are these: intravenous pretreatment; cited from earlier work.
Data set [5] relates to THP1 cells. Put plainly: IL-1β maturation in PMA-primed THP1 cells stimulated with crystals or ATP (Western blot). It is filed as cell-based, human. On the procedure:
a-c, THP1 cells were stimulated for 6 h with the indicated amounts/ml of MSU crystals (a), CPPD (b) or with 50 μg/ml of pure LPS, MSU, allopurinol crystals, CPPD crystals, diamond crystals, aluminum particles, zymosan, crude preparations of LPS, or 5 mM of extracellular ATP as indicated (c). Supernatants (SN) were analyzed for the presence of mature IL-1β, IL-18 or caspase-1, and cell extracts (Cell) for the presence of proIL-1β and proIL-18. d, human monocytes were stimulated with 50 μg/ml of the indicated crystals for 6 h and analyzed by Western blot for IL-1β activation or by ELISA for released. caspase-1 and IL-1β.
THP1 cells were pre-treated with the P2X antagonist pyridoxal-phosphate-6-azophenyl-2′,4′-disulfonic acid (PPADS, Alexis) for 30 min and subsequently stimulated for 6 h with MSU crystals (50 μg/ml). Supernatants (SN) were analyzed for the presence of mature IL-1β and cell extracts (Cell) for the presence of proIL-1β.
THP1 cells were stimulated with MSU, CPPD or ATP in the presence or absence of colchicine (colch). Maturation of IL-1β was analyzed by Western Blot.
as §3
For orientation: Immunoblotting shows a protein as a band on a membrane.

Data set [6] deals with THP1 cells. The experiment in a line: TNF-α production by stimulated THP1 cells (ELISA). It is filed as cell-based, human. The settings on record: FIG. 5a. The method, then:
as §2, §3

The subject of the next data set is human blood monocytes. Put plainly: IL-1β production by MSU-stimulated human blood monocytes (ELISA). It is filed as cell-based. The conditions noted are these: graded doses, LPS overnight, 100 μg/ml MSU 6 h; FIG. 8e. The method, then: as §1

“Also recorded” adds a separate entry of the source.

As to `C[C@]12C=CC(=O)C=C1CC[C@@H]1[C@@H]2C(=O)C[C@@]2(C)[C@H]1CC[C@]2(O)C(=O)CO` [prednisone], the “response of gouty arthritis to earlier treatment” value in the data set on gout was “the arthritis remained active”.
Turning to `CCc1oc2ccccc2c1C(=O)c1cc(Br)c(O)c(Br)c1` [benzbromazone], in the data set with gout, the “adverse effects of earlier gout treatments” value (“adverse effects” below) was “renal stones”.
As for `C=CCNC1=C2C[C@@H](C)C[C@H](OC)[C@H](O)[C@@H](C)/C=C(\C)[C@H](OC(N)=O)[C@@H](OC)/C=C\C=C(/C)C(=O)NC(=CC1=O)C2=O` [17-AAG, 17-(Allylamino)-17-demethoxygeldanamycin], the “reduction of TNFα production” value in data set [1] is reported as “less than 50%”. Further, the “production of IL-1β by mouse macrophages stimulated by MSU crystals” value in [2] (200 nM, LPS overnight, 100 μg/ml MSU 5 h, FIG. 8c) was “almost completely inhibited”. In addition, in [2] (200 nM, LPS overnight, 2 mM ATP 5 h, FIG. 8b), the “production of IL-1β by mouse macrophages stimulated by ATP” value is “almost completely inhibited”.
As for “anakinra: IL-1 receptor type I (IL-1RI) antagonist, IL-1Ra also known as anakinra, marketed under the name Kineret”, in [3] (female C57BL/6 mice, 500 μg MSU, 200 μg of each agent, 6 h, FIG. 12), the neutrophil influx result is “almost entirely prevented”. In the data set on gout, the “response of acute gouty arthritis” value is given as “complete resolution of arthritis by the second day; also recorded: responded rapidly” and the recurrence on follow-up entry is “no recurrence of arthritis; also recorded: asymptomatic two months later”. In the data set with gout (listed as Anakinra), the “response of acute gouty arthritis” value was “rapid reduction in joint pain over 48 h” and the recurrence on follow-up result is “No acute flares”. In the data set with gout (listed as Anankinra), the “response of acute gouty arthritis” value is “rapid resolution of signs and symptoms of arthritis”; the recurrence on follow-up entry is “no further flare-ups”. Moreover, in the data set on human monocytes, the “IL-6 production by human monocytes” value is reported as “significantly affected” and the “TNF-α production by human monocytes” value is recorded as “significantly affected”.
With `COc1cc2c(c(OC)c1OC)-c1ccc(OC)c(=O)cc1[C@@H](NC(C)=O)CC2` [colchicine], in data set [4], the “side effects limiting use” value is “nausea and abdominal pain”. The “inflammation after intraarticular MSU injections” value in the data set with MSU-induced inflammation is reported as “greatly reduces inflammation”. In the data set with gout, the “response of gouty arthritis to earlier treatment” value is recorded as “ineffective” and the “adverse effects” value is “rectal bleeding; also recorded: diarrhea”. Besides, the “adverse effects” value in the data set with gout (listed as Colchicine) was “intolerable diarrhea; also recorded: rapid onset of diarrhea”. Further, the “IL-1β activation by extracellular ATP” value in the data set with THP1 cells [5] (FIG. 6) was “did not affect”. Moreover, the “crystal-induced processing of IL-1β” value in the data set on THP1 cells [5] (MSU or CPPD, pretreatment, FIG. 6) was “completely blocked”.
Consider `O=C(O)Cc1ccccc1Nc1c(Cl)cccc1Cl` [diclofenac], for which the “adverse effects” value with gout is reported as “gastrointestinal side effects including one episode of G-I hemorrhage”.
Turning to `COC(=O)C[C@H](NC(=O)[C@H](C)NC(=O)[C@@H](NC(=O)[C@H](Cc1ccc(O)cc1)NC(=O)OCc1ccccc1)C(C)C)C(=O)CF` [zYVAD-fmk], in the data set with THP1 cells [6], the “TNF-α production by the TLR2 agonist Zymosan” value was “without affecting”; the “reduction of TNF-α production induced by MSU and CPPD” value is listed as “more than 50%”. The “MSU-induced IL-1β activation” value in the data set on THP1 cells [5] (MSU crystals, 6 h, FIG. 1a) was “completely blocked”.
As to `Oc1ncnc2[nH]ncc12` [allopurinol], the “adverse effects” value in the data set with gout is listed as “severe cutaneous reaction; also recorded: acute gout developed after the first dose; also recorded: induced flare-ups of arthritis”.
Consider `CO[C@H]1/C=C\C=C(/C)C(=O)NC2=CC(=O)C(NCCN(C)C)=C(C[C@@H](C)C[C@H](OC)[C@H](O)[C@@H](C)/C=C(\C)[C@@H]1OC(N)=O)C2=O` [17-DMAG, 17-(Dimethylaminoethylamino)-17-demethoxygeldanamycin], for which, in the data set with human blood monocytes, the “production of IL-1β by human blood monocytes stimulated by MSU crystals” value was “inhibited”. The “neutrophil influx in response to MSU” value in data set [3] (female BALB/C mice, 25 mg/kg intraperitoneally 1 h before 500 μg MSU, FIG. 14) is “reduced”. Besides, the “production of IL-1β by mouse macrophages stimulated by MSU crystals” value in data set [2] (50 nM, LPS 2 h, 500 μg/ml MSU 4 h, FIG. 8d) is “inhibited”.
